The values below come from patent US10441601B2, “Method for treating schizophrenia” (St. Jude Children's Research Hospital, Inc., priority 2015, dated 2019).

This assay relates to TC projections to the ACx. Put plainly: Whole-cell recordings of TC EPSCs in acute thalamocortical slices, bath application of antipsychotics / Drd2 antagonist. Format: cell-based, mouse. How it is done: Acute primary thalamocortical (TC) slices (400-μm thick) containing the left auditory cortex (ACx) and the left ventral part of the medial geniculate nuclei (MGv) of the thalamus were prepared as previously described^5. […] Primary TC slices were obtained from the left hemisphere by using a slicing angle of 15°.
Whole-cell recordings were obtained from cell bodies of layer (L) 3/4 thalamorecipient neurons in the ACx and thalamic-relay neurons in the MGv. Mice were chosen in a pseudorandom order, without the experimenter's prior knowledge of genotype or treatments. […] Voltage-clamp recordings were made using a Multiclamp 700B (Molecular Devices, Sunnyvale Calif.), digitized (10 kHz), and recorded using the pCLAMP 10.0 software (Molecular Devices, Sunnyvale Calif.). EPSCs were recorded at holding membrane potentials of −70 mV. In all experiments, membrane potentials were corrected for a liquid junction potential of −10 mV. TC excitatory postsynaptic currents (EPSCs) were evoked by current pulses (duration, 100 μs) delivered to the thalamic radiation via tungsten bipolar electrodes. Paired-pulse ratio (PPR) of TC and corticocortical (CC) EPSCs and the NMDAR/AMPAR ratio were measured as described previously^39. To ensure consistent access resistance of the recording electrode during long-term experiments, the peak amplitude of a brief (10-ms) hyperpolarizing test pulse (−5 mV) was monitored, which was given 250 ms after a stimulus. Access resistance (Ra) in recorded neurons was typically 10 to 25 MO.
Acute primary thalamocortical (TC) slices (400 µm thick) containing the auditory cortex (ACx) and the ventral part of the medial geniculate nuclei (MGv) of the thalamus were prepared as previously described^6. […] Primary TC slices were obtained from the left hemisphere by using a slicing angle of 15°.
Whole-cell recordings were obtained from cell bodies of layer (L) 3/4 thalamorecipient neurons in the ACx and thalamic-relay neurons in the MGv. […] Voltage-clamp recordings were made using a Multiclamp 700B, digitized (10 kHz), and recorded using the pCLAMP 10.0 software. EPSCs were recorded at holding membrane potentials of −70 mV. In all experiments, membrane potentials were corrected for a liquid junction potential of −10 mV. TC EPSCs were evoked by current pulses (duration, 100 […]s) delivered to the thalamic radiation via tungsten bipolar electrodes. To ensure consistent access resistance of the recording electrode during long-term experiments, the peak amplitude of a brief (10-ms) hyperpolarizing test pulse (−5 mV) was monitored given 250 ms after a stimulus. Access resistance (Ra) in recorded neurons was typically 10 to 25 MΩ.
In brief, the thalamic radiation of WT mice was stimulated to evoke TC EPSCs with a rise slope of approximately 100 pA/ms. The effect of the antipsychotic agent haloperidol on TC EPSC 30 minutes after its bath application was compared to the preapplication baseline TC EPSC (AH).

`OC1(c2ccc(Cl)cc2)CCN(Cc2c[nH]c3ccccc23)CC1` [L-741,626]: the “Effect on TC EPSCs” value (4-month-old miR-338+/− mice, L-741,626 20 nM) is given as “substantially increased”.

Take `O=C(CCCN1CCC(O)(c2ccc(Cl)cc2)CC1)c1ccc(F)cc1` [haloperidol]: the “Effect on TC EPSCs, haloperidol alone” value (4-month-old miR-338+/− mice) was “increased TC EPSCs”. Besides, for the setting “4-month-old miR-338+/− mice, haloperidol applied on top of L-741,626 20 nM”, the “Further effect on TC EPSCs after L-741,626” value is “not further elevated”. Where the note is “Df(16)1/+ mice 2 months or younger”, the “Sensitivity of TC EPSCs to haloperidol” value is reported as “not sensitive to haloperidol”. Also, the “Sensitivity of TC projections to haloperidol” value is, setting by setting: (Df(16)1/+ mice, age dependence, haloperidol 1 μM) “became sensitive to haloperidol (1 µM) only at 3 months of age”; (Dgcr8+/− mice older than 3 months) “sensitive to haloperidol at older than 3 months of age”; (WT mice, 1.5 to 7 months) “not haloperidol-sensitive at any age”; (younger Dgcr8+/− mice) “not sensitive to haloperidol”. Further, the “Sensitivity of TC projections to haloperidol, age dependence” value (miR-338+/− mice, 1.5 to 4 months) was “sensitive to haloperidol in an age-independent manner”. Under “older Df(16)1/+ mice, haloperidol 1 μM, 30 minutes after bath application”, the “Effect on deficit of TC EPSCs (smaller TC EPSCs vs WT)” value is listed as “rescued that deficit”.
